# US20020051978A1, “Methods and compositions for the identification, assessment, prevention and therapy of human cancers” (priority 2000, published 2002)
# “And” between values parts separate entries of the source, which are not always exact repeats. Equal values may be shown once. Read-outs that look alike come from different tables or passages of the source.
# What was measured:
# [1] = test system: 60 cancer cell lines (NCI 60 cancer cell line series); conditions: cited from earlier work
# [2] = test system: 60 cancer cell lines (NCI 60 cancer cell line series); assay: NCI-DTP in vitro cancer screen, sulforhodamine B (SRB) growth inhibition, 48 hour exposure; type: cell-based, human
# Summary of the method: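 Sixty NCI-DTP cancer lines plated at line-specific densities, dosed on day 1 in duplicate with 5 concentrations at ten-fold intervals. After 48 h exposure, cell mass read by SRB staining; GI50 (50% growth inhibition) taken from dose-response curves and expressed as -log GI50.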
structure (smiles),measurement,setting,value
COc1cccc2c1C(=O)c1c(O)c3c(c(O)c1C2=O)C[C@@](O)(C(C)=O)C[C@@H]3O[C@H]1C[C@H](N)[C@H](O)[C@H](C)O1 [Daunorubicin],-Log (GI50),[1]; Breast BT-549 (CL5013),6.8 and 6.7
same,-Log (GI50),[1]; Breast MCF7(I) (CL5001),8.1 and 8.0
same,-Log (GI50),[1]; Breast MCF7/ADRr (CL5002),5.3
same,-Log (GI50),[1]; Breast MDA-MB-231 CL5005,6.7 and 6.9
same,-Log (GI50),[1]; Breast MDA-MB-435 (CL5011),6.7 and 6.9
same,-Log (GI50),[1]; Breast MDA-N CL5012,6.8 and 7.1
same,-Log (GI50),[1]; Breast T-47D (CL5014),7.2 and 7.3
same,-Log (GI50),[1]; CNS SNB-19 (CL12002),7.4 and 7.7
same,-Log (GI50),[1]; CNS U251(I) CL12009,7.5 and 7.8
same,-Log (GI50),[1]; Colon COLO-250 CL4010,6.8
same,-Log (GI50),[1]; Colon HCC-2998 (CL4002),6.8 and 6.7
same,-Log (GI50),[1]; Colon HCT-15 CL4015,6.2 and 5.9
same,-Log (GI50),[1]; Colon HCT-116 (CL4003),7.6 and 7.8
same,-Log (GI50),[1]; Colon SW-620 (CL4009),7.6 and 7.7
same,-Log (GI50),[1]; Leukemia CCRF-CEM(I) (CL7003),7.9 and 8.0
same,-Log (GI50),[1]; Leukemia HL-60(I) (CL7008),7.9 and 8.0
same,-Log (GI50),[1]; Leukemia MOLT-4 (CL7006),8.2 and 8.0
same,-Log (GI50),[1]; Leukemia SR CL7019,8.1 and 8.0
same,-Log (GI50),[1]; Melanoma M14 (CL10014),6.8 and 7.1
same,-Log (GI50),[1]; Melanoma MALME-3M CL10002,7.3 and 7.6
same,-Log (GI50),[1]; Melanoma SK-MEL-5 (CL10007),7.2 and 7.4
same,-Log (GI50),[1]; Melanoma SK-MEL-28 (CL10008),6.5 and 6.7
same,-Log (GI50),[1]; Melanoma UACC-257 (CL10021),6.7 and 6.9
same,-Log (GI50),[1]; NCSLC NCI-H522 CL1003,7.3 and 7.5
same,-Log (GI50),[1]; NSCLC A549/ATCC (CL1004),7.3 and 7.6
same,-Log (GI50),[1]; NSCLC EKVX (CL1008),6.2 and 5.9
same,-Log (GI50),[1]; NSCLC HOP-62 (CL1026),7.6 and 7.8
same,-Log (GI50),[1]; NSCLC HOP-92 (CL1029),7.2 and 7.5
same,-Log (GI50),[1]; NSCLC NCI-H226 CL1013,7.5
same,-Log (GI50),[1]; NSCLC NCI-H332M CL1017,6.5 and 6.8
same,-Log (GI50),[1]; NSCLC NCI-H460 CL1021,8.2 and 8.0
same,-Log (GI50),[1]; Ovarian OVCAR-3 CL6001,6.8 and 7.0
same,-Log (GI50),[1]; Ovarian OVCAR-4 CL6002,6.5 and 6.8
same,-Log (GI50),[1]; Renal A498 CL9013,6.8 and 6.9
same,-Log (GI50),[1]; Renal RXF-393 CL9016,6.8 and 7.0
same,-Log (GI50),[1]; Renal UO-31 CL9004,6.4
same,"classification of cell line as Low(1), Medium(2) or High(3) sensitivity to compound",[2]; Breast BT-549 (CL5013),1
same,"classification of cell line as Low(1), Medium(2) or High(3) sensitivity to compound",[2]; Breast MCF7(I) (CL5001),3
same,"classification of cell line as Low(1), Medium(2) or High(3) sensitivity to compound",[2]; Breast MCF7/ADRr (CL5002),1
same,"classification of cell line as Low(1), Medium(2) or High(3) sensitivity to compound",[2]; Breast MDA-MB-231 CL5005,1
same,"classification of cell line as Low(1), Medium(2) or High(3) sensitivity to compound",[2]; Breast MDA-MB-435 (CL5011),1
same,"classification of cell line as Low(1), Medium(2) or High(3) sensitivity to compound",[2]; Breast MDA-N CL5012,1
same,"classification of cell line as Low(1), Medium(2) or High(3) sensitivity to compound",[2]; Breast T-47D (CL5014),2
same,"classification of cell line as Low(1), Medium(2) or High(3) sensitivity to compound",[2]; CNS SF-268 CL12014,2
same,"classification of cell line as Low(1), Medium(2) or High(3) sensitivity to compound",[2]; CNS SF-295 CL12015,2
same,"classification of cell line as Low(1), Medium(2) or High(3) sensitivity to compound",[2]; CNS SNB-19 (CL12002),2
same,"classification of cell line as Low(1), Medium(2) or High(3) sensitivity to compound",[2]; CNS SNB-75(I) CL12005,2
same,"classification of cell line as Low(1), Medium(2) or High(3) sensitivity to compound",[2]; CNS U251(I) CL12009,2
same,"classification of cell line as Low(1), Medium(2) or High(3) sensitivity to compound",[2]; Colon COLO-250 CL4010,1
same,"classification of cell line as Low(1), Medium(2) or High(3) sensitivity to compound",[2]; Colon HCC-2998 (CL4002),1
same,"classification of cell line as Low(1), Medium(2) or High(3) sensitivity to compound",[2]; Colon HCT-15 CL4015,1
same,"classification of cell line as Low(1), Medium(2) or High(3) sensitivity to compound",[2]; Colon HCT-116 (CL4003),2
same,"classification of cell line as Low(1), Medium(2) or High(3) sensitivity to compound",[2]; Colon HT29(I) CL4001,2
same,"classification of cell line as Low(1), Medium(2) or High(3) sensitivity to compound",[2]; Colon SW-620 (CL4009),2
same,"classification of cell line as Low(1), Medium(2) or High(3) sensitivity to compound",[2]; Leukemia CCRF-CEM(I) (CL7003),3
same,"classification of cell line as Low(1), Medium(2) or High(3) sensitivity to compound",[2]; Leukemia HL-60(I) (CL7008),3
same,"classification of cell line as Low(1), Medium(2) or High(3) sensitivity to compound",[2]; Leukemia MOLT-4 (CL7006),3
same,"classification of cell line as Low(1), Medium(2) or High(3) sensitivity to compound",[2]; Leukemia SR CL7019,3
same,"classification of cell line as Low(1), Medium(2) or High(3) sensitivity to compound",[2]; Melanoma M14 (CL10014),1
same,"classification of cell line as Low(1), Medium(2) or High(3) sensitivity to compound",[2]; Melanoma MALME-3M CL10002,2
same,"classification of cell line as Low(1), Medium(2) or High(3) sensitivity to compound",[2]; Melanoma SK-MEL-5 (CL10007),2
same,"classification of cell line as Low(1), Medium(2) or High(3) sensitivity to compound",[2]; Melanoma SK-MEL-28 (CL10008),1
same,"classification of cell line as Low(1), Medium(2) or High(3) sensitivity to compound",[2]; Melanoma UACC-62 (CL10020),2
same,"classification of cell line as Low(1), Medium(2) or High(3) sensitivity to compound",[2]; Melanoma UACC-257 (CL10021),1
same,"classification of cell line as Low(1), Medium(2) or High(3) sensitivity to compound",[2]; NSCLC A549/ATCC (CL1004),2
same,"classification of cell line as Low(1), Medium(2) or High(3) sensitivity to compound",[2]; NSCLC EKVX (CL1008),1
same,"classification of cell line as Low(1), Medium(2) or High(3) sensitivity to compound",[2]; NSCLC HOP-62 (CL1026),2
same,"classification of cell line as Low(1), Medium(2) or High(3) sensitivity to compound",[2]; NSCLC HOP-92 (CL1029),2
same,"classification of cell line as Low(1), Medium(2) or High(3) sensitivity to compound",[2]; NSCLC NCI-H226 CL1013,2
same,sensitivity class NSCLC NCI-H23(I) CL1001,"[2]; cell line NSCLC NCI-H23(I), CL1001",2
same,sensitivity class NSCLC NCI-H332M CL1017,"[2]; cell line NSCLC NCI-H332M, CL1017",1
same,sensitivity class NSCLC NCI-H460 CL1021,"[2]; cell line NSCLC NCI-H460, CL1021",3
same,sensitivity class NSCLC NCI-H522 CL1003,"[2]; cell line NSCLC NCI-H522, CL1003",2
same,sensitivity class Ovarian IGROV1 CL6010,"[2]; cell line Ovarian IGROV1, CL6010",2
same,sensitivity class Ovarian OVCAR-3 CL6001,"[2]; cell line Ovarian OVCAR-3, CL6001",1
same,sensitivity class Ovarian OVCAR-4 CL6002,"[2]; cell line Ovarian OVCAR-4, CL6002",1
same,sensitivity class Ovarian OVCAR-5 CL6003,"[2]; cell line Ovarian OVCAR-5, CL6003",1
same,sensitivity class Ovarian OVCAR-8 CL6005,"[2]; cell line Ovarian OVCAR-8, CL6005",2
same,sensitivity class Prostate DU-145 CL11003,"[2]; cell line Prostate DU-145, CL11003",2
same,sensitivity class Prostate PC-3(I) CL11001,"[2]; cell line Prostate PC-3(I), CL11001",2
same,sensitivity class Renal 786-O CL9018,"[2]; cell line Renal 786-O, CL9018",2
same,sensitivity class Renal A498 CL9013,"[2]; cell line Renal A498, CL9013",1
same,sensitivity class Renal ACHN CL9023,"[2]; cell line Renal ACHN, CL9023",2
same,sensitivity class Renal CAKI-1 CL9015,"[2]; cell line Renal CAKI-1, CL9015",2
same,sensitivity class Renal RXF-393 CL9016,"[2]; cell line Renal RXF-393, CL9016",1
same,sensitivity class Renal SN12C CL9008,"[2]; cell line Renal SN12C, CL9008",2
same,sensitivity class Renal TK10 CL9024,"[2]; cell line Renal TK10, CL9024",1
same,sensitivity class Renal UO-31 CL9004,"[2]; cell line Renal UO-31, CL9004",1
